Assay results from patent publication US20160108027A1, “SUBSTITUTED BENZOXAZOLES” (BAYER PHARMA AKTIENGESELLSCHAFT, priority 2013, published 2016).

What was measured:
[1] = biological target: T1, thrombin (Homo sapiens, UniProt P00734); experiment: Measurement of the thrombin inhibition in buffer; type: biochemical; details: human thrombin 0.06 nmol/l in Tris buffer pH 7.4, 22° C., substrate Boc-Asp(OBzl)-Pro-Arg-AMC; in some cases means of individual determinations
How it was run: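 Compound pre-incubated 15 min at 22° C with 0.06 nmol/l human thrombin in 50 mmol/l Tris, 100 mmol/l NaCl, 0.1% BSA, pH 7.4, then 5 μmol/l Boc-Asp(OBzl)-Pro-Arg-AMC added for 30 min. AMC fluorescence read at 360/460 nm against DMSO controls; IC50 from concentration–activity curves.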

[2] = biological target: T1, thrombin; experiment: Determination of the thrombin-inhibitory activity in plasma samples (ecarin-activated); type: biochemical; details: citrate plasma, ecarin activation, fluorogenic thrombin substrate; in some cases means of individual determinations
How it was run: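 Citrate plasma activated with ecarin (final 20 mU per reaction) in Ca buffer (Hepes, NaCl, CaCl2, PEG), with compound diluted from DMSO into water. Fluorogenic thrombin substrate at final 50 μmol/l; fluorescence (ex 360/em 465 nm) read each minute for 20 minutes, with buffer-only unstimulated control.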

Structure (SMILES) | IC50 [1] | IC50 [2]
COc1cc(C(=O)N2CC(C)(C)OCC2(C)C(C)O)cc2nc(NCc3cc(Cl)ccn3)oc12 (centres unmarked) [Example 69, (2-{[(4-Chloropyridin-2-yl)methyl]amino}-7-methoxy-1,3-benzoxazol-5-yl) [5-(1-hydroxyethyl)-2,2,5-trimethylmorpholin-4-yl]methanone] | 17 nM | 27 nM
CCC1C(=O)N2CCC2CN1C(=O)c1cc(OC)c2oc(NCc3cc(Cl)ccn3)nc2c1 (centres unmarked) [Example 73, 4-[(2-{[(4-Chloropyridin-2-yl)methyl]amino}-7-methoxy-1,3-benzoxazol-5-yl)carbonyl]-3-ethyl-1,4-diazabicyclo[4.2.0]octan-2-one] | 51 nM | 50 nM
COc1cc(C(=O)N2CC(C)CCC2CC2(O)CC2)cc2nc(NCc3cc(Cl)ccn3)oc12 (centres unmarked) [Example 87, (2-{[(4-Chloropyridin-2-yl)methyl]amino}-7-methoxy-1,3-benzoxazol-5-yl){2-[(1-hydroxycyclopropyl)methyl]-5-methylpiperidin-1-yl}methanone] | 5.3 nM | 27 nM
[2H]C([2H])(C)O[C@@H]1CC(CO)N(C(=O)c2cc(OC)c3oc(NC(C)c4cc(Cl)ccn4)nc3c2)C1 (stereo partly drawn) [Example 97, (2-{[1-(4-Chloropyridin-2-yl)ethyl]amino}-7-methoxy-1,3-benzoxazol-5-yl)[(4R)-4-[(1,1-^2H2)ethyloxy]-2-(hydroxymethyl)pyrrolidin-1-yl]methanone] | 17 nM | 27 nM
